The nature of series [1]: Favipiravir plasma trough level monitoring in patients (UPLC-MS/MS). It counts as in vivo, human. Here is the method: Plasma was isolated from patient blood samples collected in EDTA. Frozen plasma samples were shipped to Laboratoire de Pharmacocinétique-Toxicologie, […] La Timone, Aix-Marseille Université, Marseille, France for favipiravir concentration analysis. The quantification of favipiravir in thawed plasma samples was performed by ultra-performance liquid chromatography coupled with tandem mass spectrometry (UPLC-MS/MS) method (UPLC-TQD, Waters, USA) with a lower limit of quantification of 0.5 μg/mL [34]. Validation of the assay was performed in accordance with the 2012 EMA guidelines and the ISO15189 guidelines. Model parameter estimation, model simulation properties (visual predictive check) and dose simulations were assessed using […]2 (2.0.6) and rxode2 (2.0.7) in R (4.2.0), as described elsewhere.

Series [2] relates to HuNoV. Description: Stool HuNoV viral load (RT-qPCR Ct) in treated patients. The class given is in vivo, human.
The subject of series [3] is HuNoV. Description: HuNoV whole-genome sequencing of longitudinal patient stool samples. The arrangement: species or system human. An excerpt:
Stool samples were collected from the patients. Full-length HuNoV genome sequences were obtained from samples using SureSelectXT target enrichment and Illumina sequencing. For each patient, a unique patient reference was generated by mapping the remaining reads of the first sample to the genotype reference from GenBank using bwa-mem. Reads from the subsequent samples of the same patient were mapped to this patient reference. Consensus sequences were aligned using MAFFT [58]. Only genomes with >80% genome coverage and a mean read depth of 100 or above were included in downstream analysis. Minority allele variants with a frequency of above 2% and a minimum of 2 supporting reads were identified at sites with a read depth of ≥5 using VarScan. For plotting polymorphism frequency, we have determined Watterson's theta which normalises for reading depth. Maximum likelihood phylogenies were constructed using RAxML [13], with the GTR model and 1000 bootstrap replicates. General data processing was carried out in R 3.6.1 using Rstudio 1.2. with the tidyverse family of packages (v1.2.1). Figures were made using the ggplot2 package.

Series [4] relates to mouse norovirus. The arrangement: method as in PMID 22809499. To be noted: 95%CI: 35–43 μg/mL; cited from earlier work.

The text below walks through data of publication PMC11933534, “Favipiravir induces HuNoV viral mutagenesis and infectivity loss with clinical improvement in immunocompromised patients” (Clinical Immunology (Orlando, Fla.), 2024).

Where “and” joins values, the source holds several entries; their conditions need not be identical. Equal values may be shown once.

For the compound `NC(=O)c1nc(F)c[nH]c1=O` [favipiravir], the “Favipiravir plasma trough level” value is 10.0 µg/mL in series [1] (P1, 200 mg TDS (8-hourly, 51 mg/kg/day), average at month four); 154 µg/mL and 154.0 µg/mL in series [1] (P1, 400 mg TDS (8-hourly, 97 mg/kg/day)); 159 µg/mL and 159.0 µg/mL in series [1] (P4, 400 mg TDS (8-hourly, 67 mg/kg/day)). In addition, the “Stool HuNoV viral load” value turned out to be 30.9 Ct in series [2] (P3, favipiravir 12-hourly 1200 mg, before treatment max Ct 21.2) and 27.8 Ct in series [2] (P4, favipiravir 400 mg 8-hourly + nitazoxanide 200 mg 12-hourly, max Ct, before treatment max Ct 17.9). The “Favipiravir-associated viral sequence changes” value was “accumulation of A to G and T to C sequence changes” in series [3] (P1, P2 and P4, coinciding with periods of favipiravir treatment, reducing after cessation); “without evidence of accumulation of A to G and T to C favipiravir-associated sequence changes” in series [3] (P3, six samples). In series [4], the “EC50 for mouse norovirus in vitro” value was “EC50 Favipiravir for mouse norovirus (39 μg/mL [35])”.
